The values below come from patent US11530222B2, “Substituted pyrrolopyrimidine and pyrazolopyrimidine as Bruton's tyrosine kinase (BTK) degraders” (ACCUTAR BIOTECHNOLOGY INC., priority 2021, dated 2022).

What all share (format): cell-based
One assay concerns REC-1 BTK^C481S cells. The assay can be described thus: Growth inhibitory activity in REC-1 BTK^C481S cell line (CellTiter-Glo). Particulars: Homo sapiens, Rec1, 144 h, 6 days after administration, read-out: REC1 BTK^C481S Cellular Grwoth Inhibition IC50. As for the experimental part:
The BTK gene in REC-1 cell line (ATCC) was edited by the CRISPR-Cas9 technology to create a C to S point mutation at residue 481 of BTK protein. For gene editing, first, gRNA complex was prepared with Alt-R CRISPR-Cas9 tracrRNA and crRNA BTK^C481S (5′-[…]-3′) (IDT-Integrated DNA Technologies), and then BTK^C481S ribonucleoprotein (RNP) complex was prepared with gRNA complex and Alt-R S.p. Cas9 Nuclease V3 (IDT-Integrated DNA Technologies). Next, 1×10^5 REC-1 cells were electroporated with BTK^C481S RNP complex, Alt-R Cas9 Electroporation Enhancer and BTKC481S Ultramer DNA Oligo (5′-[…] […]-3′) (IDT-Integrated DNA Technologies) using Neon Transfection System (Thermo Fisher) under the condition of 1400 V, 10 ms, 3 pulses. Cells were then plated in a 96-well plate for 10 days and selected with 10 nM Ibrutinib for 5 passages. C481S mutation of BTK was further validated by Sanger Sequencing using gDNA extracted from these cells.
(§1) REC-1 (ATCC) and REC-1 BTK^C481S cells were plated in 96-well plates at 8,000 cells/well in 90 ul of RPMI growth medium containing 10% heat-inactivated FBS and 1× Penicillin Streptomycin, and then incubated at 37° C. overnight. The following day, the test compound was administered to the cells by using 10× compound stock solution prepared in growth medium at various concentrations. After administration of the compound, cells were then incubated at 37° C. for 6 days. Before CellTiter-Glo assay, the plates were equilibrated at room temperature for approximately 10 minutes. 100 ul of CellTiter-Glo® Reagent (Promega) was added to each well. The plates were then incubated at room temperature for 10 minutes and luminescence was recorded by EnSpire plate reader (PerkinElmer).
(§2) The GI50 values (i.e., the concentration of test compound at which 50% of cell growth are inhibited) were calculated. A designation of “A” corresponds to a […] value less than 20 nM. A designation of “B” corresponds to a […] value greater than or equal to 20 nM and less than 200 nM. A designation of “C” corresponds to a […] value greater than or equal to 200 nM.
On the technique in general: In ATP-based viability assays light output follows the ATP content of the culture.

The subject of a further assay is REC-1 cells. The assay can be described thus: Growth inhibitory activity in BTK-dependent REC-1 cell line (CellTiter-Glo). To be noted: Homo sapiens, Rec1, 144 h, 6 days after administration, read-out: REC1 Cellular Grwoth Inhibition IC50. How it is done:
as §1, §2

Another assay concerns the target T1, BTK (Homo sapiens, UniProt Q06187).
T1 construct: BTK Degradative Activity of Exemplary Compounds of the Present Disclosure in a RAMOS Cell Line; host or cells: RAMOS
The assay can be described thus: BTK degradative activity in a RAMOS cell line (Western blot). To be noted: 6 hours after administration, read-out: RAMOS BTK Degradation DC50. The gist of the method: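 Ramos cells in RPMI with 10% FBS were treated with compound in DMSO at various concentrations for 6 h at 37 °C. BTK was measured by Western blot against GAPDH with infrared fluorescent detection and band quantification. DC50 is the concentration at which 50% of BTK is degraded.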

SMILES strings stand for the structures.

T1 sequence (Q06187 whole entry): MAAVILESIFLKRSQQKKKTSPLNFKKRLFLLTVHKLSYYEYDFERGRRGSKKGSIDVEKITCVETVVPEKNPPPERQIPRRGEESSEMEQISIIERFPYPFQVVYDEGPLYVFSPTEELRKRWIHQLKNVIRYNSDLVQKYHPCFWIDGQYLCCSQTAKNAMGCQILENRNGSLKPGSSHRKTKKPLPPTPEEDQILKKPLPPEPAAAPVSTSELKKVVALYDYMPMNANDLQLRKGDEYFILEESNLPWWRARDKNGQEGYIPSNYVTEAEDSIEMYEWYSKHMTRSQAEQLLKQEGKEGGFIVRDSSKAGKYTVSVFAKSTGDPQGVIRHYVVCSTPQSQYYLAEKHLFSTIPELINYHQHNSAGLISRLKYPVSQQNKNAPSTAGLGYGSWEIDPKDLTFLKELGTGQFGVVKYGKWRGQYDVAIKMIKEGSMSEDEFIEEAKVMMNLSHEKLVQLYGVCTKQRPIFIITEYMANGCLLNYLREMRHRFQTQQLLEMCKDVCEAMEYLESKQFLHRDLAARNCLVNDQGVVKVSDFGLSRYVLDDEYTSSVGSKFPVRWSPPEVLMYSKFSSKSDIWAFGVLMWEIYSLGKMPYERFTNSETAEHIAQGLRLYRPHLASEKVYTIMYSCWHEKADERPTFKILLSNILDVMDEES

With `COc1ccc(F)cc1C(=O)NCc1ccc(-c2nn(-c3ccc(N4CCC(CN5CCN(c6ccc7c(c6)CN([C@H]6CCC(=O)NC6=O)C7=O)CC5)C4)nc3)c3ncnc(N)c23)cc1` (stereo partly drawn) [Compound 66, N-(4-(4-amino-1-(6-(3-((4-(2-((S)-2,6-dioxopiperidin-3-yl)-1-oxoisoindolin-5-yl)piperazin-1-yl)methyl)pyrrolidin-1-yl)pyridin-3-yl)-1H-pyrazolo[3,4-d]pyrimidin-3-yl)benzyl)-5-fluoro-2-methoxybenzamide], the IC50 in the assay with REC-1 BTK^C481S cells and with REC-1 cells was less than 20 nM throughout. The DC50 on BTK is less than 10 nM.
Take `COc1ccc(F)cc1C(=O)NCc1ccc(-c2nn(-c3ccc(N4CC[C@@H](CN5CCN(c6ccc7c(c6)CN([C@H]6CCC(=O)NC6=O)C7=O)CC5)C4)nc3)c3ncnc(N)c23)cc1` [Compound 94, N-(4-(4-amino-1-(6-((S)-3-((4-(2-((S)-2,6-dioxopiperidin-3-yl)-1-oxoisoindolin-5-yl)piperazin-1-yl)methyl)pyrrolidin-1-yl)pyridin-3-yl)-1H-pyrazolo[3,4-d]pyrimidin-3-yl)benzyl)-5-fluoro-2-methoxybenzamide]: the IC50 with REC-1 BTK^C481S cells and with REC-1 cells was less than 20 nM each time. In addition, the DC50 on BTK is less than 10 nM.
As for `COc1ccc(F)cc1C(=O)NCc1ccc(-c2nn(-c3ccc(N4CC(CN5CCN(c6ccc7c(c6)CN([C@H]6CCC(=O)NC6=O)C7=O)CC5)C4)nc3)c3ncnc(N)c23)cc1` [Compound 97, (S)—N-(4-(4-amino-1-(6-(3-((4-(2-(2,6-dioxopiperidin-3-yl)-1-oxoisoindolin-5-yl)piperazin-1-yl)methyl)azetidin-1-yl)pyridin-3-yl)-1H-pyrazolo[3,4-d]pyrimidin-3-yl)benzyl)-5-fluoro-2-methoxybenzamide], the IC50 in the assay with REC-1 BTK^C481S cells and with REC-1 cells was less than 20 nM each time. For the same compound, the DC50 on BTK was less than 10 nM.
With `COc1ccc(F)cc1C(=O)NCc1ccc(-c2nn(-c3ccc(N4CC[C@H](CN5CCN(c6ccc7c(c6)CN([C@H]6CCC(=O)NC6=O)C7=O)CC5)C4)c(F)c3)c3ncnc(N)c23)cc1` [Compound 95, N-(4-(4-amino-1-(4-((R)-3-((4-(2-((S)-2,6-dioxopiperidin-3-yl)-1-oxoisoindolin-5-yl)piperazin-1-yl)methyl)pyrrolidin-1-yl)-3-fluorophenyl)-1H-pyrazolo[3,4-d]pyrimidin-3-yl)benzyl)-5-fluoro-2-methoxybenzamide], the IC50 in the assay on REC-1 BTK^C481S cells and in the assay with REC-1 cells was less than 20 nM each time. Also, the DC50 at BTK was less than 10 nM.
On to `COc1ccc(F)cc1C(=O)NCc1ccc(-c2nn(-c3ccc(N4CC[C@@H](CN5CCN(c6ccc7c(c6)CN([C@H]6CCC(=O)NC6=O)C7=O)CC5)C4)c(F)c3)c3ncnc(N)c23)cc1` [Compound 96, N-(4-(4-amino-1-(4-((S)-3-((4-(2-((S)-2,6-dioxopiperidin-3-yl)-1-oxoisoindolin-5-yl)piperazin-1-yl)methyl)pyrrolidin-1-yl)-3-fluorophenyl)-1H-pyrazolo[3,4-d]pyrimidin-3-yl)benzyl)-5-fluoro-2-methoxybenzamide], for which the half-inhibitory concentration (IC50) in the assay with REC-1 BTK^C481S cells and in the assay with REC-1 cells was less than 20 nM in each case. Also, the DC50 at BTK was less than 10 nM.
Regarding `COc1ccc(F)cc1C(=O)NCc1ccc(-c2nn(C3CN(c4ccc(CN5CCN(c6ccc7c(c6)CN([C@H]6CCC(=O)NC6=O)C7=O)CC5)cn4)C3)c3ncnc(N)c23)cc1` [Compound 54, (S)—N-(4-(4-amino-1-(1-(5-((4-(2-(2,6-dioxopiperidin-3-yl)-1-oxoisoindolin-5-yl)piperazin-1-yl)methyl)pyridin-2-yl)azetidin-3-yl)-1H-pyrazolo[3,4-d]pyrimidin-3-yl)benzyl)-5-fluoro-2-methoxybenzamide], the IC50 in the assay with REC-1 cells is less than 20 nM. In addition, the DC50 at BTK is less than 10 nM.
For the compound `COc1ccc(F)cc1C(=O)NCc1ccc(-c2nn(-c3ccc(N4CCC(CN5CCN(c6ccc7c(c6)CN([C@H]6CCC(=O)NC6=O)C7=O)CC5)CC4)nc3)c3ncnc(N)c23)cc1` [Compound 59, (S)—N-(4-(4-amino-1-(6-(4-((4-(2-(2,6-dioxopiperidin-3-yl)-1-oxoisoindolin-5-yl)piperazin-1-yl)methyl)piperidin-1-yl)pyridin-3-yl)-1H-pyrazolo[3,4-d]pyrimidin-3-yl)benzyl)-5-fluoro-2-methoxybenzamide], the IC50 with REC-1 BTK^C481S cells and in the assay with REC-1 cells was less than 20 nM each time.
Take `COc1ccc(F)cc1C(=O)NCc1ccc(-c2nn(-c3ccc(N4CCC(CN5CCN(c6ccc7c(c6)CN([C@H]6CCC(=O)NC6=O)C7=O)CC5)C4)c(F)c3)c3ncnc(N)c23)cc1` (stereo partly drawn) [Compound 65, N-(4-(4-amino-1-(4-(3-((4-(2-((S)-2,6-dioxopiperidin-3-yl)-1-oxoisoindolin-5-yl)piperazin-1-yl)methyl)pyrrolidin-1-yl)-3-fluorophenyl)-1H-pyrazolo[3,4-d]pyrimidin-3-yl)benzyl)-5-fluoro-2-methoxybenzamide]: the IC50 with REC-1 BTK^C481S cells and in the assay on REC-1 cells was less than 20 nM in each case. Moreover, the DC50 at BTK is less than 10 nM.
Take `COc1ccc(F)cc1C(=O)NCc1ccc(-c2nn(-c3ccc(N4CCC(CN5CCN(c6cc7c(cc6F)C(=O)N([C@H]6CCC(=O)NC6=O)C7)CC5)CC4)c(F)c3)c3ncnc(N)c23)cc1` [Compound 51, (S)—N-(4-(4-amino-1-(4-(4-((4-(2-(2,6-dioxopiperidin-3-yl)-6-fluoro-1-oxoisoindolin-5-yl)piperazin-1-yl)methyl)piperidin-1-yl)-3-fluorophenyl)-1H-pyrazolo[3,4-d]pyrimidin-3-yl)benzyl)-5-fluoro-2-methoxybenzamide]: the IC50 in the assay with REC-1 cells is less than 20 nM. In addition, the DC50 on BTK was less than 10 nM.
With `COc1ccc(F)cc1C(=O)NCc1ccc(-c2nn(-c3ccc(N4CCC(CN5CCN(c6ccc7c(c6)CN([C@H]6CCC(=O)NC6=O)C7=O)CC5)CC4)c(F)c3)c3ncnc(N)c23)cc1` [Compound 49, (S)—N-(4-(4-amino-1-(4-(4-((4-(2-(2,6-dioxopiperidin-3-yl)-1-oxoisoindolin-5-yl)piperazin-1-yl)methyl)piperidin-1-yl)-3-fluorophenyl)-1H-pyrazolo[3,4-d]pyrimidin-3-yl)benzyl)-5-fluoro-2-methoxybenzamide], the IC50 in the assay on REC-1 BTK^C481S cells and in the assay on REC-1 cells was less than 20 nM throughout. The DC50 at BTK is less than 10 nM.
On to `COc1ccc(F)cc1C(=O)NCc1ccc(-c2nn(-c3ccc(N4CC[C@H](CN5CCN(c6ccc7c(c6)CN([C@H]6CCC(=O)NC6=O)C7=O)CC5)C4)nc3)c3ncnc(N)c23)cc1` [Compound 93, N-(4-(4-amino-1-(6-((R)-3-((4-(2-((S)-2,6-dioxopiperidin-3-yl)-1-oxoisoindolin-5-yl)piperazin-1-yl)methyl)pyrrolidin-1-yl)pyridin-3-yl)-1H-pyrazolo[3,4-d]pyrimidin-3-yl)benzyl)-5-fluoro-2-methoxybenzamide], for which the half-maximal inhibitory concentration (IC50) in the assay on REC-1 BTK^C481S cells and in the assay with REC-1 cells was less than 20 nM in each case. Moreover, the DC50 at BTK was less than 10 nM.
Turning to `COc1ccc(F)cc1C(=O)NCc1ccc(-c2nn(-c3ccc(N4CC(CN5CCN(c6ccc7c(c6)CN([C@H]6CCC(=O)NC6=O)C7=O)CC5)C4)c(F)c3)c3ncnc(N)c23)cc1` [Compound 85, (S)—N-(4-(4-amino-1-(4-(3-((4-(2-(2,6-dioxopiperidin-3-yl)-1-oxoisoindolin-5-yl)piperazin-1-yl)methyl)azetidin-1-yl)-3-fluorophenyl)-1H-pyrazolo[3,4-d]pyrimidin-3-yl)benzyl)-5-fluoro-2-methoxybenzamide], the IC50 with REC-1 BTK^C481S cells and in the assay on REC-1 cells was less than 20 nM each time. For the same compound, the DC50 at BTK was less than 10 nM.

In general, IC50 refers to the concentration at which inhibition is half-maximal. As usually defined, the DC50 is the concentration giving 50% degradation.
